Values quoted from earlier work in PMC10221159, “Investigation of N-Acetyltransferase 2-Mediated Drug Interactions of Amifampridine: In Vitro and In Vivo Evidence of Drug Interactions with Acetaminophen” (Pharmaceutics, 2023).

Set-up: method as in PMID 25692017
Conditions: NAT2 slow vs fast acetylators; cited from earlier work

Nc1ccncc1N [amifampridine]
AUC higher in slow acetylators than in fast acetylators: 5–10 fold
Cmax higher in slow acetylators than in fast acetylators: approximately 3.5 fold
higher frequency of drug-related treatment-emergent adverse events in slow than fast acetylators: more than 10 fold
